# Experimental data reported in US8901072B2, “Glycopeptide and lipoglycopeptide antibiotics with improved solubility” (The Medicines Company, priority 2009, dated 2014).
# Values joined by “and” are separate entries in the source; they are usually repeats but may differ in a detail not shown here. Equal entries are not always repeated. Where two headings read alike, the source gives them in different places.
# What was measured:
# [1] = Solubility in phosphate buffered saline; type: physicochemical; conditions: 10 mM phosphate buffered saline (0.138 M NaCl, 2.7 mM KCl), pH 7.4
# Experimental: To a sample of the material of known mass were added known volumes of phosphate buffered saline until complete dissolution is observed. Suspensions were centrifuged for 5 min at 10000 rpm. […] Upon complete dissolution, the solution is diluted until the final concentration is 0.5 mg/mL to ensure that the material remains soluble over the entire range of concentrations.
# S. aureus ATCC 13709 = experiment: In vitro antibacterial susceptibility (MIC, broth microdilution); type: cell-based; conditions: for MIC against S. aureus ATCC 13709, CAMHB: cation-adjusted Mueller-Hinton broth, 37° C., 18 h; for Antibacterial activity compared with oritavancin 5: deduced from the MIC data of Table 2; for MIC: Staphylococcus aureus
# Experimental: Susceptibility of S. aureus strain ATCC13709 to oritavancin (5) and synthesized compounds was determined following the guidelines set by the Clinical and Laboratory Standards Institute (formerly the National Committee for Clinical Laboratory Standards) (M26-A). Compounds were serially diluted two-fold in either DMSO (Oritavancin 5) or in PBS and transferred to cation-adjusted Mueller Hinton broth (CAMHB; Becton Dickinson). 50 μL of compounds diluted in CAMHB was mixed with 100 μL of bacteria diluted in CAMHB in 96-well microtiter plates. The final number of micro-organisms in the assay was 5×10^5 c.f.u. per mL and the final concentration of DMSO in the assay, if present, was 1.25%. All solutions may contain 0.002% Tween as indicated. Assays were set up in duplicate and incubated at 37° C. for 18 h. The concentration of compound that inhibited visible growth was reported as the minimum inhibitory concentration (MIC).
# [2] = tested on: S. aureus strain ATCC13709; experiment: Neutropenic mouse thigh infection model; type: in vivo, mice; conditions: for In vivo antibacterial efficacy compared with oritavancin: deduced from the data of Table 3; for Recovered bacterial titers per thigh, 1 mg/kg / Recovered bacterial titers per thigh, 10 mg/kg / Recovered bacterial titers per thigh, 40 mg/kg: neutropenic mice, 24 h postinfection; for Recovered bacterial titers per thigh, 1 mg/kg: 1 mg/kg one hour after inoculation; for Recovered bacterial titers per thigh, 10 mg/kg: 10 mg/kg one hour after inoculation; for Recovered bacterial titers per thigh, 40 mg/kg: 40 mg/kg one hour after inoculation
# Experimental: The susceptibility of S. aureus strain ATCC13709 to oritavancin (5) and selected synthesized compounds in vivo was evaluated with the well accepted neutropenic mouse thigh infection model (Craig, W. A. et al. Journal of Antimicrobial Chemotherapy (1991), 27 (Suppl. C):29-40). Mice were made neutropenic by treatment with cyclophosphamide (150 and 100 mg/kg of body weight administered intraperitoneally 4 days and 1 day prior to infection). Mice were anesthetized briefly with approximately 4% isoflurane just prior to inoculation. The bacterial suspension (0.1 mL) was injected intramuscularly into each thigh (approximately 10^5 colony forming units (CFU)/thigh). The selected agents were administered in 10% (w/w) β-hydroxypropylcyclodextrin in water at a concentration of 10 mg/mL one hour following bacterial inoculation. The animals were humanely sacrificed by CO2 asphyxiation 24 h postinfection. The entire thigh muscle mass including the bone was homogenized and diluted in 0.9% saline and aliquots were plated on Brain-Heart Infusion agar. Following overnight incubation at 37° C., bacteria were enumerated for each thigh and expressed as log10 CFU per thigh. This was performed over three independent experiments and oritavancin (5) was used as a comparator in each.
SMILES,Solubility (mg/mL) PBS [1],"MIC against S. aureus ATCC 13709, CAMHB + 0.002% tween (S. aureus ATCC 13709) [µg/mL]","MIC against S. aureus ATCC 13709, CAMHB + 50% human serum (S. aureus ATCC 13709) [µg/mL]","MIC against S. aureus ATCC 13709, CAMHB + 50% mouse serum (S. aureus ATCC 13709) [µg/mL]","MIC against S. aureus ATCC 13709, CAMHB + 50% rat serum (S. aureus ATCC 13709) [µg/mL]","MIC against S. aureus ATCC 13709, CAMHB (S. aureus ATCC 13709) [µg/mL]",Antibacterial activity compared with oritavancin 5 (S. aureus ATCC 13709),In vivo antibacterial efficacy compared with oritavancin [2],"Recovered bacterial titers per thigh, 1 mg/kg [2] [Log10 CFU/thigh]","Recovered bacterial titers per thigh, 10 mg/kg [2] [Log10 CFU/thigh]","Recovered bacterial titers per thigh, 40 mg/kg [2] [Log10 CFU/thigh]","solubility ([1]; aqueous buffer, thermodynamic from solid, read-out: Solubility (mg/mL) PBS) [mg/mL]","MIC (S. aureus ATCC 13709; ATCC13709, 18 h, read-out: MIC against S. aureus ATCC 13709, CAMHB) [µg/mL]","MIC (S. aureus ATCC 13709; ATCC13709, read-out: MIC against S. aureus ATCC 13709, CAMHB + 0.002% tween) [µg/mL]","MIC (S. aureus ATCC 13709; ATCC13709, read-out: MIC against S. aureus ATCC 13709, CAMHB + 50% human serum) [µg/mL]","MIC (S. aureus ATCC 13709; ATCC13709, read-out: MIC against S. aureus ATCC 13709, CAMHB + 50% mouse serum) [µg/mL]","MIC (S. aureus ATCC 13709; ATCC13709, read-out: MIC against S. aureus ATCC 13709, CAMHB + 50% rat serum) [µg/mL]","Recovered bacterial titers per thigh, 1 mg/kg ([2]; 1 mg/kg)","Recovered bacterial titers per thigh, 10 mg/kg ([2]; 10 mg/kg)","Recovered bacterial titers per thigh, 40 mg/kg ([2]; 40 mg/kg)"
CNC(CC(C)C)C(=O)NC1C(=O)NC(CC(N)=O)C(=O)NC2C(=O)NC3C(=O)NC(C(=O)NC(C(=O)OCC(=O)NCCCNCCCN)c4cc(O)cc(O)c4-c4cc3ccc4O)C(OC3CC(C)(N)C(O)C(C)O3)c3ccc(c(Cl)c3)Oc3cc2cc(c3OC2OC(CO)C(O)C(O)C2OC2CC(C)(NCc3ccc(-c4ccc(Cl)cc4)cc3)C(O)C(C)O2)Oc2ccc(cc2Cl)C1O (stereo not drawn) [Compound 66],>100 mg/mL,0.25,0.125,1,0.125,2,within an order of magnitude of that of oritavancin 5,within the same order of magnitude than oritavancin itself,8.16 ± 0.49,3.96 ± 1.74,4.04 ± 0.51,–,–,–,–,–,–,–,–,–
CNC(CC(C)C)C(=O)NC1C(=O)NC(CC(N)=O)C(=O)NC2C(=O)NC3C(=O)NC(C(=O)NC(C(=O)OCC(=O)NCCN)c4cc(O)cc(O)c4-c4cc3ccc4O)C(OC3CC(C)(N)C(O)C(C)O3)c3ccc(c(Cl)c3)Oc3cc2cc(c3OC2OC(CO)C(O)C(O)C2OC2CC(C)(NCc3ccc(-c4ccc(Cl)cc4)cc3)C(O)C(C)O2)Oc2ccc(cc2Cl)C1O (stereo not drawn) [Compound 90a],≧100 mg/mL,0.5,0.25,0.5,–,1,within an order of magnitude of that of oritavancin 5,–,8.38 ± 0.23,6.13 ± 2.53,5.27 ± 2.66,–,–,–,–,–,–,–,–,–
CNC(CC(C)C)C(=O)NC1C(=O)NC(CC(N)=O)C(=O)NC2C(=O)NC3C(=O)NC(C(=O)NC(C(=O)OCC(=O)NCCCN)c4cc(O)cc(O)c4-c4cc3ccc4O)C(OC3CC(C)(N)C(O)C(C)O3)c3ccc(c(Cl)c3)Oc3cc2cc(c3OC2OC(CO)C(O)C(O)C2OC2CC(C)(NCc3ccc(-c4ccc(Cl)cc4)cc3)C(O)C(C)O2)Oc2ccc(cc2Cl)C1O (stereo not drawn) [Compound 90b],≧100 mg/mL,0.5,0.25,0.5,–,1,within an order of magnitude of that of oritavancin 5,–,8.61 ± 0.16,6.44 ± 1.82,2.97 ± 2.35,–,–,–,–,–,–,–,–,–
CNC(CC(C)C)C(=O)NC1C(=O)NC(CC(N)=O)C(=O)NC2C(=O)NC3C(=O)NC(C(=O)NC(C(=O)OCC[N+](C)(C)C)c4cc(O)cc(O)c4-c4cc3ccc4O)C(OC3CC(C)(N)C(O)C(C)O3)c3ccc(c(Cl)c3)Oc3cc2cc(c3OC2OC(CO)C(O)C(O)C2OC2CC(C)(NCc3ccc(-c4ccc(Cl)cc4)cc3)C(O)C(C)O2)Oc2ccc(cc2Cl)C1O (stereo not drawn) [Compound 95],≧100 mg/mL,0.25,0.5,2,0.125,1,within an order of magnitude of that of oritavancin 5,within the same order of magnitude than oritavancin itself,8.32 ± 0.17,3.95 ± 1.57,2.96 ± 0.96,–,–,–,–,–,–,–,–,–
CNC(CC(C)C)C(=O)NC1C(=O)NC(CC(N)=O)C(=O)NC2C(=O)NC3C(=O)NC(C(=O)NC(C(=O)SCC(=O)NCCCN)c4cc(O)cc(O)c4-c4cc3ccc4O)C(OC3CC(C)(N)C(O)C(C)O3)c3ccc(c(Cl)c3)Oc3cc2cc(c3OC2OC(CO)C(O)C(O)C2OC2CC(C)(NCc3ccc(-c4ccc(Cl)cc4)cc3)C(O)C(C)O2)Oc2ccc(cc2Cl)C1O (stereo not drawn) [Compound 93],≧100 mg/mL,0.125,0.25,1,–,0.5,within an order of magnitude of that of oritavancin 5,within the same order of magnitude than oritavancin itself,8.53 ± 0.49,4.45 ± 1.68,4.18 ± 1.70,–,–,–,–,–,–,–,–,–
CC(C)CC(C(=O)NC1C(=O)NC(CC(N)=O)C(=O)NC2C(=O)NC3C(=O)NC(C(=O)NC(C(=O)O)c4cc(O)cc(O)c4-c4cc3ccc4O)C(OC3CC(C)(N)C(O)C(C)O3)c3ccc(c(Cl)c3)Oc3cc2cc(c3OC2OC(CO)C(O)C(O)C2OC2CC(C)(NCc3ccc(-c4ccc(Cl)cc4)cc3)C(O)C(C)O2)Oc2ccc(cc2Cl)C1O)N(C)C(=O)OCOC(=O)CCC(=O)NC(CCC(=O)O)(CCC(=O)O)CCC(=O)O (stereo not drawn) [Compound 78],4 mg/mL,1,16,32,–,8,weaker activities,–,–,–,–,–,–,–,–,–,–,–,–,–
"CN[C@H](CC(C)C)C(=O)N[C@H]1C(=O)N[C@@H](CC(N)=O)C(=O)N[C@H]2C(=O)N[C@H]3C(=O)N[C@H](C(=O)N[C@H](C(=O)O)c4cc(O)cc(O)c4-c4cc3ccc4O)[C@H](O[C@H]3C[C@](C)(N)[C@@H](O)[C@H](C)O3)c3ccc(c(Cl)c3)Oc3cc2cc(c3O[C@@H]2O[C@H](CO)[C@@H](O)[C@H](O)[C@H]2O[C@H]2C[C@](C)(NCc3ccc(-c4ccc(Cl)cc4)cc3)[C@@H](O)[C@H](C)O2)Oc2ccc(cc2Cl)[C@H]1O [Oritavancin (5), oritavancin, reference compound]",<0.1 mg/mL,–,–,–,–,–,–,–,–,–,–,< 0.1,1,0.125,0.125,0.25,0.25,8.16 ± 0.38 Log10 CFU/thigh and 7.96 ± 0.93 Log10 CFU/thigh and 7.98 ± 0.11 Log10 CFU/thigh,5.19 ± 1.86 Log10 CFU/thigh and 3.81 ± 1.16 Log10 CFU/thigh and 3.03 ± 0.53 Log10 CFU/thigh,2.62 ± 0.18 Log10 CFU/thigh and 2.62 ± 0.51 Log10 CFU/thigh and 2.29 ± 0.70 Log10 CFU/thigh
